Results reported in patent publication US8338597B2, “Pyridones useful as inhibitors of kinases” (Vertex Pharmaceuticals Incorporated, priority 2004, dated 2012).
Where “and” joins values, the source holds several entries; their conditions need not be identical. Identical values can stand only once.

Tests used:
Type in all cases: biochemical
Itk [1] = biological target: T1, Itk (Homo sapiens, UniProt Q08881); experiment: ITK inhibition assay, radioactive-phosphate incorporation; details: [γ-33P]ATP, SAM68 peptide, 25° C.
T1 sequence (Q08881 1-620): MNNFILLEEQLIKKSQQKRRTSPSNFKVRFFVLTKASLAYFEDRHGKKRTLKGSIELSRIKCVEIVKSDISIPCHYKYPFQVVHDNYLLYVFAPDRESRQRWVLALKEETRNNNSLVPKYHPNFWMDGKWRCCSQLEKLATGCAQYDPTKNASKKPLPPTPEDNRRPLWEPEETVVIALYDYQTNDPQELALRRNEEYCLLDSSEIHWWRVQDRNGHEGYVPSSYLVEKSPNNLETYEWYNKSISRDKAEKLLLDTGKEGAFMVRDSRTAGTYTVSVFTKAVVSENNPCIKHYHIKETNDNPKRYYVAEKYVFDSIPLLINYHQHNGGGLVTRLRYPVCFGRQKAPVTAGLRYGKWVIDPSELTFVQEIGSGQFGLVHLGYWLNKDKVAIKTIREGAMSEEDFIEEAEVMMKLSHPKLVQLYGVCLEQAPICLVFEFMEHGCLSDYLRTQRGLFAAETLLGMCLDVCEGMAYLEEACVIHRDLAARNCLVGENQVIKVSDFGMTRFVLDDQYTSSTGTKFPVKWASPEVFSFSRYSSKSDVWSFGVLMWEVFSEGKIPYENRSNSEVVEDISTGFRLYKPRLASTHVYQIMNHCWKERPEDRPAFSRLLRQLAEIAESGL
Experimental: Assays were carried out in a mixture of 20 mM MOPS (pH 7.0), 10 mM MgCl2, 0.1% BSA and 1 mM DTT. […] Assays were carried out at 25° C. in the presence of 50 nM Itk. An assay stock buffer solution was prepared containing all of the reagents listed above, with the exception of ATP and the test compound of interest.
(§1) The reaction was stopped after 10 minutes by the addition of […] 0.2M phosphoric acid+0.01% TWEEN 20. A multiscreen phosphocellulose filter 96-well plate (Millipore, Cat no. MAPHN0B50) was pretreated with 100 μL 0.2M phosphoric acid+0.01% TWEEN 20 prior to the addition of […] of the stopped assay mixture. The plate was washed with 4×200 μL 0.2M phosphoric acid+0.01% TWEEN 20.
Ki(app) data were calculated from non-linear regression analysis of the initial rate data using the Prism software package (GraphPad Prism version 3.0cx for Macintosh, GraphPad Software, San Diego Calif., USA).

Itk [2] = biological target: T1, Itk; experiment: ITK inhibition assay (UV), standard coupled enzyme assay; details: 100 μM ATP, 100 nM Itk, 25° C.
Experimental: Assays were carried out in a mixture of 20 mM MOPS (pH 7.0), 10 mM MgCl2, 0.1% BSA, 1 mM DTT, 2.5 mM phosphoenolpyruvate, 300 μM NADH, 30 μg/ml pyruvate kinase and 10 μg/ml lactate dehydrogenase. […]
An assay stock buffer solution was prepared containing all of the reagents listed above, with the exception of ATP and the test compound of interest. […] The plate was preincubated for 10 minutes at 25° C. and the reaction initiated by addition of 5 μl of ATP. Initial reaction rates were determined with a Molecular Devices SpectraMax Plus plate reader over a 10 minute time course. IC50 and Ki data were calculated from non-linear regression analysis using the Prism software package (GraphPad Prism version 3.0cx for Macintosh, GraphPad Software, San Diego Calif., USA).

Rlk = biological target: T2, Rlk (Homo sapiens, UniProt P42681); experiment: RLK inhibition assay, standard coupled enzyme assay; details: 100 μM ATP, 40 nM Rlk, 30° C.
T2 sequence (P42681 1-527): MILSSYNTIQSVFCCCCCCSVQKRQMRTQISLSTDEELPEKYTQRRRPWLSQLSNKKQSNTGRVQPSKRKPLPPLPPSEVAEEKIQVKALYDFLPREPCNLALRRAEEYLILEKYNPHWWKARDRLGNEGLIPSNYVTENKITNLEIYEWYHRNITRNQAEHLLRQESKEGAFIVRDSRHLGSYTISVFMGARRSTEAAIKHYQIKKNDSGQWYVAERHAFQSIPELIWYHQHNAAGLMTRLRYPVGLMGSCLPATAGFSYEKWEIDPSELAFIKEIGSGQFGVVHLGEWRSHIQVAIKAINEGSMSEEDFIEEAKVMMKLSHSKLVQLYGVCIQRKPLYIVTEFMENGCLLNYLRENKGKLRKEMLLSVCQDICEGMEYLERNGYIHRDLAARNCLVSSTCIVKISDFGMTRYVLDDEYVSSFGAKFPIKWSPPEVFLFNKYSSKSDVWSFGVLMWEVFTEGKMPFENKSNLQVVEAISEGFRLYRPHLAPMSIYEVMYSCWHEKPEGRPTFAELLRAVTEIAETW
Experimental: Compounds were screened for their ability to inhibit Rlk using a standard coupled enzyme assay (Fox et al., Protein Sci., (1998) 7, 2249). Assays were carried out in a mixture of 20 mM MOPS (pH 7.0), 10 mM MgCl2, 0.1% BSA and 1 mM DTT. Final substrate concentrations in the assay were 100 μM ATP (Sigma Chemicals) and 10 μM peptide (Poly Glu:Tyr 4:1). Assays were carried out at 30° C. and in the presence of 40 nM Rlk. Final concentrations of the components of the coupled enzyme system were 2.5 mM phosphoenolpyruvate, 300 μM NADH, 30 μg/ml pyruvate kinase and 10 μg/ml lactate dehydrogenase.
An assay stock buffer solution was prepared containing all of the reagents listed above, with the exception of ATP and the test compound of interest. 60 μl of the stock solution was placed in a 96 well plate followed by addition of […] of DMSO stock containing serial dilutions of the test compound (typically starting from a final concentration of 7.5 μM). The plate was preincubated for 10 minutes at 30° C. and the reaction initiated by addition of 5 μl of ATP. Initial reaction rates were determined with a Molecular Devices SpectraMax Plus plate reader over a 10 minute time course. IC50 and Ki data were calculated from non-linear regression analysis using the Prism software package (GraphPad Prism version 3.0cx for Macintosh, GraphPad Software, San Diego Calif., USA).

Btk = Btk (Homo sapiens, UniProt Q06187); experiment: BTK inhibition assay, radioactive-phosphate incorporation; details: 50 μM [γ-33P]ATP, 25 nM Btk, 25° C.
Chain of Btk (Q06187 whole entry, species assumed): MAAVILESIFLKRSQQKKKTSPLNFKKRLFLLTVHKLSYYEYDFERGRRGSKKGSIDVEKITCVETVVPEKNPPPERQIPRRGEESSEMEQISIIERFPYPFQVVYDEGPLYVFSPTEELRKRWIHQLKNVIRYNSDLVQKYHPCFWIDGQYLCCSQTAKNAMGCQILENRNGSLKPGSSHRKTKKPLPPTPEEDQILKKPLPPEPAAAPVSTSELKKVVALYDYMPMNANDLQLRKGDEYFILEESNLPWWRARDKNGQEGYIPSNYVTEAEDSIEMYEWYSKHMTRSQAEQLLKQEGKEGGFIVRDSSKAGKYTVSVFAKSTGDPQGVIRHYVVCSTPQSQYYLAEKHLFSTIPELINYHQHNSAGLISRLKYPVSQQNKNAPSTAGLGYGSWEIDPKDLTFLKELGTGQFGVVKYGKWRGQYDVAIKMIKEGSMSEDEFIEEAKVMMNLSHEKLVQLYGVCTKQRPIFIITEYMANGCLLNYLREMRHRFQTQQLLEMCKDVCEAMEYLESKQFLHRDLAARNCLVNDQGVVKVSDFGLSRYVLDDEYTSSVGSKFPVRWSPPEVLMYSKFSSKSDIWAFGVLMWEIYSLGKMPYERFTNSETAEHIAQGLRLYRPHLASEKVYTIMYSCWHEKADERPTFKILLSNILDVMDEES
Experimental: Compounds were screened for their ability to inhibit Btk using a radioactive-phosphate incorporation assay at Vertex Pharmaceuticals. Assays were carried out in a mixture of 20 mM MOPS (pH 7.0), 10 mM MgCl2, 0.1% BSA and 1 mM DTT. Final substrate concentrations in the assay were 50 μM [γ-33P]ATP (200mCi 33P ATP/mmol ATP, Amersham Pharmacia Biotech, Amersham, UK/Sigma Chemicals) and 2 μM peptide (SAM68 D332-443). Assays were carried out at 25° C. and in the presence of 25 nM Btk. An assay stock buffer solution was prepared containing all of the reagents listed above, with the exception of the peptide and the test compound of interest. 75 μL of the stock solution was placed in a 96 well plate followed by addition of 2 μL of DMSO stock containing serial dilutions of the test compound (typically starting from a final concentration of 15 μM) in duplicate (final DMSO concentration 2%). The plate was preincubated for 15 minutes at 25° C. and the reaction initiated by addition of 25 μL peptide (final concentration 2 μM). Background counts were determined by the addition of […] 0.2M phosphoric acid+0.01% TWEEN to control wells containing assay stock buffer and DMSO prior to initiation with peptide.
as §1, with “phosphoric acid+0.01% TWEEN. A multiscreen” for “phosphoric acid+0.01% TWEEN 20. A multiscreen”, “TWEEN 20. After drying, 30 μL Optiphase ‘SuperMix’ liquid scintillation cocktail (Perkin Elmer) was added to the well prior to scintillation counting (1450 Microbeta Liquid Scintillation Counter, Wallac).” for “TWEEN 20.”
After removing mean background values for all of the data points, Ki(app) data were calculated from non-linear regression analysis using the Prism software package (GraphPad Prism version 3.0cx for Macintosh, GraphPad Software, San Diego Calif., USA).

Compound `CNCCN(C)Cc1ccc(C(=O)Nc2cc(-c3ccncc3)c[nH]c2=O)cc1` [Compound I-84] has a Ki (Itk [1]) of 100 to 1000 nM and a Ki (Itk [2]) of 100 to 1000 nM.
`O=C(Nc1cc(-c2ccncc2)c[nH]c1=O)c1ccc(N2CCCNCC2)cc1` [Compound I-78] was tested, and the Ki (Itk [2]) was less than 100 nM.
`CNc1cccc(-c2c[nH]c(=O)c(NC(=O)c3ccc(C(C)(C)C)cc3)c2)n1` [II-7] showed a Ki (Itk [1]) of 100 to 1000 nM, a Ki (Itk [2]) of 100 to 1000 nM and a Ki (Rlk) greater than 1000 nM.
For `CN(C)CCN(C)c1nccc(-c2c[nH]c(=O)c(NC(=O)c3ccc(N4CCCCC4)cc3)c2)n1` [II-61], the Ki (Itk [1]) was 100 to 1000 nM and the Ki (Btk) was > 500 nM and < 500 nM.
`O=C(Nc1cc(-c2ccncc2)c[nH]c1=O)c1ccc(CN2CCNCC2)cc1` [Compound I-83] was tested, and the Ki (Itk [1]) was 100 to 1000 nM and the Ki (Itk [2]) was 100 to 1000 nM.
For `CNc1ccc(C)c(-c2c[nH]c(=O)c(NC(=O)c3ccc(C(C)(C)C)cc3)c2)c1` [II-43], the Ki (Itk [1]) was 100 to 1000 nM and the Ki (Btk) was greater than 500 nM.
`CN1CCN(c2ccc(C(=O)Nc3cc(-c4ccncc4)c[nH]c3=O)cc2)CC1` [Compound I-70] showed a Ki (Itk [2]) of less than 100 nM.
`O=C(Nc1cc(-c2ccncc2)c[nH]c1=O)c1ccc(CCl)cc1` [Compound I-5] gave a Ki (Itk [1]) of 100 to 1000 nM, a Ki (Itk [2]) of 100 to 1000 nM and a Ki (Rlk) greater than 1000 nM.
`CC(C)(C)c1ccc(C(=O)Nc2cc(-c3ccncc3)c[nH]c2=O)cc1` [Compound I-11, 4-tert-Butyl-N-(6-oxo-1,6-dihydro-[3,4]bipyridinyl-5-yl)-benzamide] gave a Ki (Itk [1]) of 100 to 1000 nM, a Ki (Itk [2]) of 100 to 1000 nM and a Ki (Rlk) greater than 1000 nM.
Compound `CSc1nccc(-c2c[nH]c(=O)c(NC(=O)c3ccc(C(C)(C)C)cc3)c2)n1` [II-4, 4-tert-Butyl-N-[5-(2-methylsulfanyl-pyrimidin-4-yl)-2-oxo-1,2-dihydro-pyridin-3-yl]-benzamide] has a Ki (Itk [1]) of 100 to 1000 nM and a Ki (Itk [2]) of 100 to 1000 nM.
Compound `Cn1cc(-c2c[nH]c(=O)c(NC(=O)c3ccc(C(C)(C)C)cc3)c2)cn1` [II-15] has a Ki (Itk [1]) of 100 to 1000 nM and a Ki (Rlk) greater than 1000 nM.
Work on `CNc1cc(F)cc(-c2c[nH]c(=O)c(NC(=O)c3ccc(N4CCC[C@H]4CN4CCCC4)cc3)c2)n1` [II-171] yielded a Ki (Itk [1]) of less than 100 nM and a Ki (Rlk) greater than 1000 nM.
In the case of `O=C(Nc1cc(-c2ccncc2)c[nH]c1=O)c1ccc(N2CCCC2)cc1` [Compound I-69], the Ki (Itk [1]) is reported as 100 to 1000 nM and the Ki (Itk [2]) is reported as 100 to 1000 nM.
`CC(C)(C)c1ccc(C(=O)Nc2cc(-c3ccnc(NC4CCNCC4)n3)c[nH]c2=O)cc1` [II-28] showed a Ki (Itk [1]) of less than 100 nM and a Ki (Rlk) of less than 1000 nM.
`CC(C)(C)c1ccc(NC(=O)c2cc(-c3ccncc3)c[nH]c2=O)cc1` [III-5] was tested, and the Ki (Itk [1]) was 100 to 1000 nM and the Ki (Rlk) was greater than 1000 nM.
In the case of `CNc1nccc(-c2c[nH]c(=O)c(NC(=O)c3ccc(N4CCCCC4)cc3)c2)n1` [II-40, N-(1,2-dihydro-5-(2-(methylamino)pyrimidin-4-yl)-2-oxopyridin-3-yl)-4-(piperidin-1-yl)benzamide], the Ki (Itk [1]) is reported as less than 100 nM and the Ki (Rlk) is reported as less than 1000 nM.
With `CNc1cc(-c2c[nH]c(=O)c(NC(=O)c3ccc(C(C)(C)C)cc3)c2)nc(SC)n1` [II-41] the Ki (Itk [1]) was 100 to 1000 nM, the Ki (Itk [2]) was 100 to 1000 nM and the Ki (Rlk) was greater than 1000 nM.
With `O=C(Nc1cc(-c2ccncc2)c[nH]c1=O)c1ccc(N2CCCCCC2)cc1` [Compound I-76] the Ki (Itk [2]) was less than 100 nM.
With `O=C(Nc1cc(-c2ccncc2)c[nH]c1=O)c1ccc(N2CCNCC2)cc1` [Compound I-71] the Ki (Itk [1]) was less than 100 nM and the Ki (Rlk) was greater than 1000 nM.
`CNc1cncc(-c2c[nH]c(=O)c(NC(=O)c3ccc(N4CC[C@@H](N(C)C)C4)cc3)c2)n1` [II-166] gave a Ki (Itk [1]) of less than 100 nM and a Ki (Rlk) greater than 1000 nM.
For `O=C(Nc1cc(-c2ccncc2)c[nH]c1=O)c1ccc(CN2CCOCC2)cc1` [Compound I-82], the Ki (Itk [1]) was 100 to 1000 nM and the Ki (Itk [2]) was 100 to 1000 nM.
`CNc1cncc(-c2c[nH]c(=O)c(NC(=O)c3ccc(NC4CCNCC4)cc3)c2)n1` [II-163] gave a Ki (Itk [1]) of less than 100 nM and a Ki (Rlk) greater than 1000 nM.
`NCCCNc1ccc(C(=O)Nc2cc(-c3ccncc3)c[nH]c2=O)cc1` [Compound I-80] showed a Ki (Itk [2]) of less than 100 nM.
`CNc1cncc(-c2c[nH]c(=O)c(NC(=O)c3ccc(N4CCC[C@H]4CN4CCCC4)cc3)c2)c1` [II-178] showed a Ki (Itk [1]) of less than 100 nM and a Ki (Rlk) greater than 1000 nM.
`CCN(CC)CCN1CCN(c2ccc(C(=O)Nc3cc(-c4ccncc4)c[nH]c3=O)cc2)CC1` [Compound I-74] gave a Ki (Itk [1]) of less than 100 nM and a Ki (Rlk) greater than 1000 nM.
With `CNc1cc(-c2c[nH]c(=O)c(NC(=O)c3ccc(C(C)(C)C)cc3)c2)ncn1` [II-17] the Ki (Itk [1]) was less than 100 nM and the Ki (Rlk) was greater than 1000 nM.
`CN(C)CCCNc1ccc(C(=O)Nc2cc(-c3ccncc3)c[nH]c2=O)cc1` [Compound I-79] gave a Ki (Itk [2]) of less than 100 nM.
`O=C1C=C(c2c[nH]c(=O)c(NC(=O)c3ccc(N4CCCCC4)cc3)c2)CC1` [II-87] was tested, and the Ki (Itk [1]) was 100 to 1000 nM and the Ki (Rlk) was greater than 1000 nM.
